According to patent US9833497B2, “Human originated EGF domain proteins and use of the same” (CHENGDU SOURCEBIO LIMITED-LIABILITY COMPANY, priority 2013, dated 2017):

Legend:
Format in all cases: cell-based
E. coli DH5α = experiment: Antibacterial activity: MIC and growth curve against E. coli DH5α in 96-well plate; conditions: minimal inhibitory concentration against E. coli DH5α; 96-well plate, 5×10^5 CFU/mL, 37° C., judged after 8 h
Summary of the method: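 MIC taken as lowest protein level with no bacterial growth, tracked by A600 every 30 min during 37 °C, 175 rpm culture. Two-fold protein series 50-12.5 μg/mL final, triplicate wells, against 5×10^5 CFU/mL of LB-washed mid-log cells.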

E. coli BL21 = experiment: MIC against Gram-negative bacteria: E. coli BL21; conditions: for MIC (μg/mL) E. coli BL21 / MIC E. coli BL21 / MIC against E. coli BL21: 5×10^5 CFU/mL
Summary of the method: (§1)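 MIC = lowest concentration of recombinant protein showing no growth. Test proteins: purified human-derived EGF domain proteins, two-fold dilution series, three wells per concentration; inoculum 5×10^5 CFU/mL in LB; incubation 37° C with shaking at 175 rpm.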

Pseudomonas aeruginosa = experiment: MIC against Gram-negative bacteria: Pseudomonas aeruginosa; conditions: for MIC (μg/mL) P. aeruginosa / MIC P. aeruginosa / MIC against P. aeruginosa: 5×10^5 CFU/mL
Summary of the method: as §1

Klebsiella pneumonia = experiment: MIC against Gram-negative bacteria: Klebsiella pneumonia; conditions: for MIC (μg/mL) K. pneumonia / MIC K. pneumonia / MIC against K. pneumonia: 5×10^5 CFU/mL
Summary of the method: as §1

Enterobacter cloacae = experiment: MIC against Gram-negative bacteria: Enterobacter cloacae; conditions: for MIC (μg/mL) E. cloacae / MIC E. cloacae / MIC against E. cloacae: 5×10^5 CFU/mL
Summary of the method: as §1

Aeromonas hydrophila = experiment: MIC against Gram-negative bacteria: Aeromonas hydrophila; conditions: for MIC (μg/mL) A. hydrophila / MIC A. hydrophila / MIC against A. hydrophila: 5×10^5 CFU/mL
Summary of the method: as §1

Citrobacter diversus = experiment: MIC against Gram-negative bacteria: Citrobacter diversus; conditions: for MIC (μg/mL) C. diversus / MIC C. diversus / MIC against C. diversus: 5×10^5 CFU/mL
Summary of the method: as §1

Moraxella catarrhalis = experiment: MIC against Gram-negative bacteria: Moraxella catarrhalis; conditions: for MIC (μg/mL) M. catarrhalis / MIC M. catarrhalis / MIC against M. catarrhalis: 5×10^5 CFU/mL
Summary of the method: as §1

Proteus mirabilis = experiment: MIC against Gram-negative bacteria: Proteus mirabilis; conditions: for MIC (μg/mL) P. mirabilis / MIC P. mirabilis / MIC against P. mirabilis: 5×10^5 CFU/mL
Summary of the method: as §1

Proteus vulgaris = experiment: MIC against Gram-negative bacteria: Proteus vulgaris; conditions: for MIC (μg/mL) P. vulgaris / MIC P. vulgaris / MIC against P. vulgaris: 5×10^5 CFU/mL
Summary of the method: as §1

Serratia marcescens = experiment: MIC against Gram-negative bacteria: Serratia marcescens; conditions: for MIC (μg/mL) S. marcescens / MIC S. marcescens / MIC against S. marcescens: 5×10^5 CFU/mL
Summary of the method: as §1

[1] = E. coli BL21, 96-well plate, 37° C., 10 h
[2] = Pseudomonas aeruginosa, 96-well plate, 37° C., 10 h
[3] = Klebsiella pneumonia, 96-well plate, 37° C., 10 h
[4] = Enterobacter cloacae, 96-well plate, 37° C., 10 h
[5] = Aeromonas hydrophila, 96-well plate, 37° C., 10 h
[6] = Citrobacter diversus, 96-well plate, 37° C., 10 h
[7] = Moraxella catarrhalis, 96-well plate, 37° C., 10 h
[8] = Proteus mirabilis, 96-well plate, 37° C., 10 h
[9] = Proteus vulgaris, 96-well plate, 37° C., 10 h
[10] = Serratia marcescens, 96-well plate, 37° C., 10 h
[11] = E. coli BL21, 10 h cultivation at 37° C.
[12] = P. aeruginosa, 10 h cultivation at 37° C.
[13] = K. pneumonia, 10 h cultivation at 37° C.
[14] = E. cloacae, 10 h cultivation at 37° C.
[15] = A. hydrophila, 10 h cultivation at 37° C.
[16] = C. diversus, 10 h cultivation at 37° C.
[17] = M. catarrhalis, 10 h cultivation at 37° C.
[18] = P. mirabilis, 10 h cultivation at 37° C.
[19] = P. vulgaris, 10 h cultivation at 37° C.
[20] = S. marcescens, 10 h cultivation at 37° C.

PRT103 (CSSYGKLCRNGGKCRERPIGFFCDCTFSAYTGPFC; listed as Homo sapiens)
MIC (E. coli DH5α): 50 µg/mL
MIC (μg/mL) E. coli BL21 (E. coli BL21; [1]): 12.5 µg/mL
MIC (μg/mL) P. aeruginosa (Pseudomonas aeruginosa; [2]): 50 µg/mL
MIC (μg/mL) K. pneumonia (Klebsiella pneumonia; [3]): 12.5 µg/mL
MIC (μg/mL) E. cloacae (Enterobacter cloacae; [4]): 12.5 µg/mL
MIC (μg/mL) A. hydrophila (Aeromonas hydrophila; [5]): 12.5 µg/mL
MIC (μg/mL) C. diversus (Citrobacter diversus; [6]): 12.5 µg/mL
MIC (μg/mL) M. catarrhalis (Moraxella catarrhalis; [7]): 12.5 µg/mL
MIC (μg/mL) P. mirabilis (Proteus mirabilis; [8]): 25 µg/mL
MIC (μg/mL) P. vulgaris (Proteus vulgaris; [9]): 12.5 µg/mL
MIC (μg/mL) S. marcescens (Serratia marcescens; [10]): 25 µg/mL

PRT632 (CKCHPLGSQEDQCHPKTGQCTCRPGVTGQACDRCQLGFFGFSIKGCRA; listed as Homo sapiens)
MIC (E. coli DH5α): 12.5 µg/mL
MIC E. coli BL21 (E. coli BL21; 96-well plate, 37° C., 10 h): 25 µg/mL
MIC P. aeruginosa (Pseudomonas aeruginosa; 96-well plate, 37° C., 10 h): 12.5 µg/mL
MIC K. pneumonia (Klebsiella pneumonia; 96-well plate, 37° C., 10 h): 25 µg/mL
MIC E. cloacae (Enterobacter cloacae; 96-well plate, 37° C., 10 h): 12.5 µg/mL
MIC A. hydrophila (Aeromonas hydrophila; 96-well plate, 37° C., 10 h): 25 µg/mL
MIC C. diversus (Citrobacter diversus; 96-well plate, 37° C., 10 h): 50 µg/mL
MIC M. catarrhalis (Moraxella catarrhalis; 96-well plate, 37° C., 10 h): 25 µg/mL
MIC P. mirabilis (Proteus mirabilis; 96-well plate, 37° C., 10 h): 12.5 µg/mL
MIC P. vulgaris (Proteus vulgaris; 96-well plate, 37° C., 10 h): 25 µg/mL
MIC S. marcescens (Serratia marcescens; 96-well plate, 37° C., 10 h): 50 µg/mL

PRT10 (NCSAQCHNHGVCNHKQECHCHAGWAPPHCA; listed as Homo sapiens)
MIC (E. coli DH5α): 25 µg/mL
MIC (μg/mL) E. coli BL21 (E. coli BL21; [1]): 50 µg/mL
MIC (μg/mL) P. aeruginosa (Pseudomonas aeruginosa; [2]): 12.5 µg/mL
MIC (μg/mL) K. pneumonia (Klebsiella pneumonia; [3]): 50 µg/mL
MIC (μg/mL) E. cloacae (Enterobacter cloacae; [4]): 12.5 µg/mL
MIC (μg/mL) A. hydrophila (Aeromonas hydrophila; [5]): 50 µg/mL
MIC (μg/mL) C. diversus (Citrobacter diversus; [6]): 25 µg/mL
MIC (μg/mL) M. catarrhalis (Moraxella catarrhalis; [7]): 12.5 µg/mL
MIC (μg/mL) P. mirabilis (Proteus mirabilis; [8]): 12.5 µg/mL
MIC (μg/mL) P. vulgaris (Proteus vulgaris; [9]): 25 µg/mL
MIC (μg/mL) S. marcescens (Serratia marcescens; [10]): 12.5 µg/mL

PRT1325 (TEDNCNGTCHTSANCLTNSDGTASCKCAAGFQGNGTICT; listed as Homo sapiens)
MIC (E. coli DH5α): 12.5 µg/mL
MIC against E. coli BL21 (E. coli BL21; [1]): 12.5 µg/mL
MIC against P. aeruginosa (Pseudomonas aeruginosa; [2]): 25 µg/mL
MIC against K. pneumonia (Klebsiella pneumonia; [3]): 12.5 µg/mL
MIC against E. cloacae (Enterobacter cloacae; [4]): 25 µg/mL
MIC against A. hydrophila (Aeromonas hydrophila; [5]): 25 µg/mL
MIC against C. diversus (Citrobacter diversus; [6]): 12.5 µg/mL
MIC against M. catarrhalis (Moraxella catarrhalis; [7]): 12.5 µg/mL
MIC against P. mirabilis (Proteus mirabilis; [8]): 25 µg/mL
MIC against P. vulgaris (Proteus vulgaris; [9]): 12.5 µg/mL
MIC against S. marcescens (Serratia marcescens; [10]): 25 µg/mL

PRT527 (CPCPHTNSFATGCVVNGGDVRCSCKAGYTGTQCERCAPGYFGNPQKFGGSCQP; listed as Homo sapiens)
MIC (E. coli DH5α): 50 µg/mL
MIC against E. coli BL21 (E. coli BL21; 96-well plate, 37° C., 10 h): 12.5 µg/mL
MIC against P. aeruginosa (Pseudomonas aeruginosa; 96-well plate, 37° C., 10 h): 50 µg/mL
MIC against K. pneumonia (Klebsiella pneumonia; 96-well plate, 37° C., 10 h): 12.5 µg/mL
MIC against E. cloacae (Enterobacter cloacae; 96-well plate, 37° C., 10 h): 25 µg/mL
MIC against A. hydrophila (Aeromonas hydrophila; 96-well plate, 37° C., 10 h): 50 µg/mL
MIC against C. diversus (Citrobacter diversus; 96-well plate, 37° C., 10 h): 25 µg/mL
MIC against M. catarrhalis (Moraxella catarrhalis; 96-well plate, 37° C., 10 h): 12.5 µg/mL
MIC against P. mirabilis (Proteus mirabilis; 96-well plate, 37° C., 10 h): 25 µg/mL
MIC against P. vulgaris (Proteus vulgaris; 96-well plate, 37° C., 10 h): 50 µg/mL
MIC against S. marcescens (Serratia marcescens; 96-well plate, 37° C., 10 h): 25 µg/mL

PRT170 (CTHHKPCKNGATCTNTGQGSYTCSCRPGYTGATC; listed as Homo sapiens)
MIC (E. coli DH5α): 50 µg/mL
MIC (μg/mL) E. coli BL21 (E. coli BL21; [11]): 25 µg/mL
MIC (μg/mL) P. aeruginosa (Pseudomonas aeruginosa; [12]): 12.5 µg/mL
MIC (μg/mL) K. pneumonia (Klebsiella pneumonia; [13]): 25 µg/mL
MIC (μg/mL) E. cloacae (Enterobacter cloacae; [14]): 50 µg/mL
MIC (μg/mL) A. hydrophila (Aeromonas hydrophila; [15]): 25 µg/mL
MIC (μg/mL) C. diversus (Citrobacter diversus; [16]): 12.5 µg/mL
MIC (μg/mL) M. catarrhalis (Moraxella catarrhalis; [17]): 25 µg/mL
MIC (μg/mL) P. mirabilis (Proteus mirabilis; [18]): 50 µg/mL
MIC (μg/mL) P. vulgaris (Proteus vulgaris; [19]): 25 µg/mL
MIC (μg/mL) S. marcescens (Serratia marcescens; [20]): 12.5 µg/mL

PRT934 (DKNECLSNPCQNGGTCDNLVNGYRCTCKKGFKGYNCQ; listed as Homo sapiens)
MIC (E. coli DH5α): 12.5 µg/mL
MIC (E. coli BL21; [11]): 25 µg/mL
MIC (Pseudomonas aeruginosa; [12]): 50 µg/mL
MIC (Klebsiella pneumonia; [13]): 12.5 µg/mL
MIC (Enterobacter cloacae; [14]): 50 µg/mL
MIC (Aeromonas hydrophila; [15]): 25 µg/mL
MIC (Citrobacter diversus; [16]): 25 µg/mL
MIC (Moraxella catarrhalis; [17]): 12.5 µg/mL
MIC (Proteus mirabilis; [18]): 50 µg/mL
MIC (Proteus vulgaris; [19]): 12.5 µg/mL
MIC (Serratia marcescens; [20]): 50 µg/mL

PRT903 (DINECASDPCRNGANCTDCVDSYTCTCPAGFSGIHCE; listed as Homo sapiens)
MIC (E. coli DH5α): 12.5 µg/mL
MIC (E. coli BL21; [11]): 50 µg/mL
MIC (Pseudomonas aeruginosa; [12]): 12.5 µg/mL
MIC (Klebsiella pneumonia; [13]): 25 µg/mL
MIC (Enterobacter cloacae; [14]): 50 µg/mL
MIC (Aeromonas hydrophila; [15]): 12.5 µg/mL
MIC (Citrobacter diversus; [16]): 50 µg/mL
MIC (Moraxella catarrhalis; [17]): 12.5 µg/mL
MIC (Proteus mirabilis; [18]): 25 µg/mL
MIC (Proteus vulgaris; [19]): 50 µg/mL
MIC (Serratia marcescens; [20]): 12.5 µg/mL

PRT607 (CDCHPEGSLSLQCKDDGRCECREGFVGNRCDQCEENYFYNRSWPGCQE; listed as Homo sapiens)
MIC (E. coli DH5α): 50 µg/mL
MIC E. coli BL21 (E. coli BL21; 96-well plate, 37° C., 10 h): 25 µg/mL
MIC P. aeruginosa (Pseudomonas aeruginosa; 96-well plate, 37° C., 10 h): 12.5 µg/mL
MIC K. pneumonia (Klebsiella pneumonia; 96-well plate, 37° C., 10 h): 25 µg/mL
MIC E. cloacae (Enterobacter cloacae; 96-well plate, 37° C., 10 h): 50 µg/mL
MIC A. hydrophila (Aeromonas hydrophila; 96-well plate, 37° C., 10 h): 12.5 µg/mL
MIC C. diversus (Citrobacter diversus; 96-well plate, 37° C., 10 h): 50 µg/mL
MIC M. catarrhalis (Moraxella catarrhalis; 96-well plate, 37° C., 10 h): 12.5 µg/mL
MIC P. mirabilis (Proteus mirabilis; 96-well plate, 37° C., 10 h): 50 µg/mL
MIC P. vulgaris (Proteus vulgaris; 96-well plate, 37° C., 10 h): 12.5 µg/mL
MIC S. marcescens (Serratia marcescens; 96-well plate, 37° C., 10 h): 50 µg/mL

PRT723 (KERTCAENICEQNCTQLNEGGFICSCTAGFETNVFDRTSCL; listed as Homo sapiens)
MIC (E. coli DH5α): 25 µg/mL
MIC E. coli BL21 (E. coli BL21; 96-well plate, 37° C., 10 h): 50 µg/mL
MIC P. aeruginosa (Pseudomonas aeruginosa; 96-well plate, 37° C., 10 h): 100 µg/mL
MIC K. pneumonia (Klebsiella pneumonia; 96-well plate, 37° C., 10 h): 100 µg/mL
MIC E. cloacae (Enterobacter cloacae; 96-well plate, 37° C., 10 h): 50 µg/mL
MIC A. hydrophila (Aeromonas hydrophila; 96-well plate, 37° C., 10 h): 12.5 µg/mL
MIC C. diversus (Citrobacter diversus; 96-well plate, 37° C., 10 h): 25 µg/mL
MIC M. catarrhalis (Moraxella catarrhalis; 96-well plate, 37° C., 10 h): 12.5 µg/mL
MIC P. mirabilis (Proteus mirabilis; 96-well plate, 37° C., 10 h): 25 µg/mL
MIC P. vulgaris (Proteus vulgaris; 96-well plate, 37° C., 10 h): 25 µg/mL
MIC S. marcescens (Serratia marcescens; 96-well plate, 37° C., 10 h): 12.5 µg/mL
